Columns and labels:
[1] = molecular target: T1, LXRα ligand binding domain (Homo sapiens, UniProt Q13133); experiment: Ligand Sensing Assay for LXRα agonist activity; type: biochemical; conditions: 1 μM; over a background reading of 10000 fluorescence units
T1 construct: His tag; made in house
T1 sequence (Q13133 183-447): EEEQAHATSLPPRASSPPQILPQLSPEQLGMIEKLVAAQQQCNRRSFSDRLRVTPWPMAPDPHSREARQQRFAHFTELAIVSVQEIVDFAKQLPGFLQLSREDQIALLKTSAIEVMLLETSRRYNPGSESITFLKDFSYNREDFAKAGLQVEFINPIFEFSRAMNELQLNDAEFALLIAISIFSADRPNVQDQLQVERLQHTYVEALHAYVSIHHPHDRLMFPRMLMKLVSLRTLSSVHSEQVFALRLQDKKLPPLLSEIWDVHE
T1 sequence (Q15788 676-700 partner): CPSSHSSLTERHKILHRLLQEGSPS
Method: Test Method 2: Ligand Sensing Assay for LXRα Agonist Activity
The assay for LXRα was run according to the procedures of Test Method 1, above using his-tagged LXRα ligand binding domain (amino acids 183-447 of Genbank accession number U22662, with the 14th amino acid corrected to A from R). In this assay 1 μM 24(S),25-epoxycholesterol gave a reading of 20000 fluorescence units over a background reading of 10000 fluorescence units.

[2] = molecular target: T2, human LXRβ ligand binding domain (Homo sapiens, UniProt P55055); experiment: Ligand Sensing Assay (LiSA) for LXRβ agonist activity (SRC1 peptide recruitment); type: biochemical; conditions: 1 μM; over a background reading of 10000 fluorescence units
T2 construct: made in house; host or cells: E. coli BL21 (DE3), pRSETa
T2 sequence (P55055 184-460 limits assumed): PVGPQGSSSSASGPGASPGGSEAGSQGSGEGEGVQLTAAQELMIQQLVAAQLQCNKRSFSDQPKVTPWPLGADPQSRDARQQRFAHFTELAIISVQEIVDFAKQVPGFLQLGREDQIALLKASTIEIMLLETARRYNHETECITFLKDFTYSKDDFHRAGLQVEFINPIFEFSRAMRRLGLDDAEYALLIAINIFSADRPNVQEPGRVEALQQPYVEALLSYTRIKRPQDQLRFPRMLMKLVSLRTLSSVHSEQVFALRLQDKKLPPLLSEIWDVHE
T2 sequence (Q15788 676-700 partner limits assumed): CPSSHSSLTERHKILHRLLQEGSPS
Description: Test Method 1: Ligand Sensing Assay (LiSA) for LXRβ Agonist Activity
This assay measures the recruitment of a peptide derived from the coactivator protein, SRC1, to the agonist-bound LXR[…]. Peptides derived from other nuclear receptor cofactors may be similarly prepared and assayed.
To generate the human LXRβ ligand binding domain suitable for LISA, a modified polyhistidine tag (MKKGHHHHHHG) (SEQ ID No. 1) was fused in frame to the human LXRβ ligand binding domain (amino acids 185-461 of Genbank accession number U07132) and subcloned into the expression vector pRSETa (Invitrogen) under the control of an IPTG inducible T7 promoter. The human LXRβ ligand binding domain was expressed in E. coli strain BL21 (DE3). Ten-liter fermentation batches were grown in Rich PO4 media with 0.1 mg/mL Ampicillin at 25° C. for 12 hours, cooled to […] and held at that temperature for 36 hours to a density of OD600=14. […]
Typically 25-50 g of cell paste is resuspended in 250-500 mL TBS, pH 8.0 (25 mM Tris, 150 mM NaCl). […] After washing to baseline absorbance with equilibration buffer, the column is washed with approximately one column volume of TBS pH-8.0 containing 95 mM imidazole. […] After washing to baseline absorbance with the dilution buffer the protein is eluted with a gradient from 50-500 mM NaCl. […]

Structure (SMILES): C[C@H](CC[C@@H]1OC1(C)C)[C@H]1CC[C@H]2[C@@H]3CC=C4C[C@@H](O)CC[C@]4(C)[C@H]3CC[C@]12C [24(S),25-epoxycholesterol]
- reading (fluorescence units) [1]: 20000 fluorescence units
- reading (fluorescence units) [2]: 20000 fluorescence units
